{"source": "ChEMBL document CHEMBL4382254", "about": "“Design, synthesis, structure-activity relationships and mechanism of action of new quinoline derivatives as potential antitumor agents” (Eur J Med Chem, 2019)", "key": {"HCT-116 [1]": {"system": "HCT-116", "assay": "Cytotoxicity against human HCT116 cells after 48 hrs by MTT assay", "type": "functional, cell-based", "conditions": "HCT-116, 48 h"}, "HepG2": {"system": "HepG2", "assay": "Cytotoxicity against human HepG2 cells after 48 hrs by MTT assay", "type": "functional, cell-based", "conditions": "HepG2, 48 h"}, "BGC-823": {"system": "BGC-823", "assay": "Cytotoxicity against human BGC823 cells after 48 hrs by MTT assay", "type": "functional, cell-based", "conditions": "BGC-823, 48 h"}, "NCI-H1650": {"system": "NCI-H1650", "assay": "Cytotoxicity against human NCI-H1650 cells after 48 hrs by MTT assay", "type": "functional, cell-based", "conditions": "NCI-H1650, 48 h"}, "HCT-116 [2]": {"system": "HCT-116", "assay": "Cytotoxicity against human HCT116 cells assessed as reduction in cell viability at 5 uM incubated for 24 hrs followed by compound washout by CCK8 assay", "type": "functional, cell-based", "conditions": "TDE = time-dependent effect"}, "RKO [3]": {"system": "RKO", "assay": "Cytotoxicity against human RKO cells assessed as reduction in cell viability at 5 uM incubated for 24 hrs followed by compound washout by CCK8 assay", "type": "functional, cell-based", "conditions": "TDE = time-dependent effect"}, "HCT-116 [4]": {"system": "HCT-116", "assay": "Inhibition of colony formation in human HCT116 cells after 24 hrs by crystal violet staining based assay", "type": "functional, cell-based"}, "DLD-1": {"system": "DLD-1", "assay": "Inhibition of colony formation in human DLD1 cells after 24 hrs by crystal violet staining based assay", "type": "functional, cell-based"}, "RKO [5]": {"system": "RKO", "assay": "Induction of morphological changes in human RKO cells assessed as cell shrinkage at 5 to 10 uM after 24 hrs by phase contrast microscopic analysis", "type": "functional, cell-based"}, "HCT-116 [6]": {"system": "HCT-116", "assay": "Induction of morphological changes in human HCT116 cells assessed as reduction in cell number at 5 to 10 uM after 24 hrs by phase contrast microscopic analysis", "type": "functional, cell-based"}, "RKO [7]": {"system": "RKO", "assay": "Induction of morphological changes in human RKO cells assessed as reduction in cell number at 5 to 10 uM after 24 hrs by phase contrast microscopic analysis", "type": "functional, cell-based"}, "FHC": {"system": "FHC", "assay": "Cytotoxicity against human FHC cells assessed as reduction in cell viability at 10 to 20 uM incubated for 24 hrs by CCK8 assay", "type": "cell-based"}, "HCT-116 [8]": {"system": "HCT-116", "assay": "Induction of apoptosis in human HCT116 cells assessed as viable cells at 2.5 uM after 24 hrs by Annexin V-FITC/propidium iodide staining based flow cytometry (reference value: 87.19%)", "type": "functional", "conditions": "HCT-116, 24 h, read-out: Activity"}, "HCT-116 [9]": {"system": "HCT-116", "assay": "Induction of apoptosis in human HCT116 cells assessed as early apoptotic cells at 2.5 uM after 24 hrs by Annexin V-FITC/propidium iodide staining based flow cytometry (reference value: 3.32%)", "type": "functional"}, "HCT-116 [10]": {"system": "HCT-116", "assay": "Induction of apoptosis in human HCT116 cells assessed as early apoptotic cells at 5 uM after 24 hrs by Annexin V-FITC/propidium iodide staining based flow cytometry (reference value: 3.32 to 5.5%)", "type": "functional"}, "HCT-116 [11]": {"system": "HCT-116", "assay": "Induction of apoptosis in human HCT116 cells assessed as increase in early apoptotic cells after 24 hrs by Annexin V-FITC/propidium iodide staining based flow cytometry", "type": "functional, cell-based"}, "HCT-116 [12]": {"system": "HCT-116", "assay": "Induction of apoptosis in human HCT116 cells assessed as early apoptotic cells at 2.5 to 5 uM after 24 hrs in presence of pan-caspase inhibitor z-VAD-FMK by Annexin V-FITC/propidium iodide staining based flow cytometry (reference value: 2.5%)", "type": "functional"}, "HCT-116 [13]": {"system": "HCT-116", "assay": "Induction of apoptosis in human HCT116 cells assessed as late apoptotic cells at 2.5 to 5 uM after 24 hrs in presence of pan-caspase inhibitor z-VAD-FMK by Annexin V-FITC/propidium iodide staining based flow cytometry (reference value: 7.29%)", "type": "functional"}, "HCT-116 [14]": {"system": "HCT-116", "assay": "Induction of intracellular reactive oxygen species generation in human HCT116 cells at 5 to 10 uM after 24 hrs by DCFH-DA staining based flow cytometry", "type": "functional, cell-based"}, "HCT-116 [15]": {"system": "HCT-116", "assay": "Cell cycle arrest in human HCT116 cells assessed as accumulation at G0/G1 phase at 5 uM after 24 hrs by propidium iodide staining based flow cytometry (reference value: 77.78%)", "type": "functional"}, "HCT-116 [16]": {"system": "HCT-116", "assay": "Cell cycle arrest in human HCT116 cells assessed as accumulation at S phase at 5 uM after 24 hrs by propidium iodide staining based flow cytometry (reference value: 5.55%)", "type": "functional"}, "HCT-116 [17]": {"system": "HCT-116", "assay": "Cytotoxicity against Bax-deficient human HCT116 cells assessed as reduction in cell viability measured after 24 hrs by CCK8 assay", "type": "functional, cell-based", "conditions": "HCT-116, 24 h"}, "HCT-116 [18]": {"system": "HCT-116", "assay": "Cytotoxicity against P53-deficient human HCT116 cells assessed as reduction in cell viability measured after 24 hrs by CCK8 assay", "type": "functional, cell-based", "conditions": "HCT-116, 24 h"}, "HCT-116 [19]": {"system": "HCT-116", "assay": "Inhibition of colony formation in Bax-deficient human HCT116 cells after 24 hrs by crystal violet staining based assay", "type": "functional, cell-based"}, "HCT-116 [20]": {"system": "HCT-116", "assay": "Induction of apoptosis in Bax-deficient human HCT116 cells assessed as early apoptotic cells at 5 uM after 24 hrs by Annexin V-FITC/propidium iodide staining based flow cytometry (reference value: 8.01%)", "type": "functional"}, "HCT-116 [21]": {"system": "HCT-116", "assay": "Induction of apoptosis in P53-deficient human HCT116 cells assessed as early apoptotic cells at 5 uM after 24 hrs by Annexin V-FITC/propidium iodide staining based flow cytometry (reference value: 5.96%)", "type": "functional"}, "HCT-116 [22]": {"system": "HCT-116", "assay": "Induction of apoptosis in P53-deficient human HCT116 cells assessed as necrotic cells at 5 uM after 24 hrs by Annexin V-FITC/propidium iodide staining based flow cytometry (reference value: 4.45%)", "type": "functional"}, "[23]": {"target": "Cellular tumor antigen p53 (Homo sapiens) (UniProt P04637)", "sequence (P04637 whole entry, looked up)": "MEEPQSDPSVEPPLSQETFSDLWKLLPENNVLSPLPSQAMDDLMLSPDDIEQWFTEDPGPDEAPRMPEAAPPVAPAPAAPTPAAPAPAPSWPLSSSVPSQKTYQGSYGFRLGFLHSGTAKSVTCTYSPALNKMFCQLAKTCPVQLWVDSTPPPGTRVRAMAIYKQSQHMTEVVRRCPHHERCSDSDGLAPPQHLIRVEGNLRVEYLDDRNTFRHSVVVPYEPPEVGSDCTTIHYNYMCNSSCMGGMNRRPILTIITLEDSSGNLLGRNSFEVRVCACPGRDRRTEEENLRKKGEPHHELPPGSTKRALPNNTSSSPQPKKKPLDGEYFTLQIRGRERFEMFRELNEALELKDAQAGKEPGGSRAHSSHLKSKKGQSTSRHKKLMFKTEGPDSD", "assay": "Activation of P53 in human HCT116 cells assessed as increase in Bax expression at 2.5 to 20 uM after 24 hrs by immunoblot analysis", "type": "cell-based"}, "[24]": {"target": "Cellular tumor antigen p53 (Homo sapiens) (UniProt P04637)", "assay": "Activation of P53 in human HCT116 cells assessed as increase in PUMA expression at 2.5 to 20 uM after 24 hrs by immunoblot analysis", "type": "cell-based"}, "[25]": {"target": "Cellular tumor antigen p53 (Homo sapiens) (UniProt P04637)", "assay": "Activation of P53 in human HCT116 cells assessed as increase in p21 expression at 2.5 to 20 uM after 24 hrs by immunoblot analysis", "type": "cell-based"}, "[26]": {"target": "Cellular tumor antigen p53 (Homo sapiens) (UniProt P04637)", "assay": "Activation of P53 in human HCT116 cells assessed as decrease in PARP expression at 2.5 to 20 uM after 24 hrs by immunoblot analysis", "type": "cell-based"}, "HCT-116 [27]": {"system": "HCT-116", "assay": "Induction of apoptosis in P53-deficient human HCT116 cells assessed as increase in Bax expression at 2.5 to 20 uM after 24 hrs by immunoblot analysis", "type": "functional, cell-based"}, "HCT-116 [28]": {"system": "HCT-116", "assay": "Induction of apoptosis in P53-deficient human HCT116 cells assessed as increase in PUMA expression at 2.5 to 20 uM after 24 hrs by immunoblot analysis", "type": "functional, cell-based"}, "HCT-116 [29]": {"system": "HCT-116", "assay": "Induction of apoptosis in P53-deficient human HCT116 cells assessed as increase in p21 expression at 2.5 to 20 uM after 24 hrs by immunoblot analysis", "type": "functional, cell-based"}, "HCT-116 [30]": {"system": "HCT-116", "assay": "Induction of apoptosis in human HCT116 cells assessed as change in P53 expression at 2.5 to 20 uM after 24 hrs by immunoblot analysis", "type": "functional, cell-based"}, "[31]": {"target": "Cellular tumor antigen p53 (Homo sapiens) (UniProt P04637)", "assay": "Induction of P53 phosphorylation at Ser392 residue in human HCT116 cells after 15 to 90 mins by immunoblot analysis", "type": "cell-based"}, "HCT-116 [32]": {"system": "HCT-116", "assay": "Anticancer activity against human HCT116 cells xenografted in […] mouse assessed as tumor growth inhibition at 80 mg/kg administered once every 3 days for 21 days", "type": "functional, organism-based"}, "HCT-116 [33]": {"system": "HCT-116", "assay": "Anticancer activity against human HCT116 cells xenografted in […] mouse assessed as reduction in tumor weight at 80 mg/kg administered once every 3 days for 21 days", "type": "functional, organism-based"}}, "note": "Active and inactive are the calls of the source. No cut-off for these calls is given here."}
{"smiles": "CN(C)CCNc1ccnc2cc(OCc3ccc(F)cc3)ccc12", "values": [{"measurement": "IC50", "setting": "HCT-116 [1]", "result": 370, "unit": "nM"}, {"measurement": "IC50", "setting": "HepG2", "result": 790, "unit": "nM"}, {"measurement": "IC50", "setting": "BGC-823", "result": 890, "unit": "nM"}, {"measurement": "IC50", "setting": "NCI-H1650", "result": 780, "unit": "nM"}, {"measurement": "Activity", "setting": "HCT-116 [2]", "result": "Tde"}, {"measurement": "Activity", "setting": "RKO [3]", "result": "Tde"}, {"measurement": "inhibition", "setting": "HCT-116 [4]", "result": "Dose-dependent effect"}, {"measurement": "inhibition", "setting": "DLD-1", "result": "Dose-dependent effect"}, {"measurement": "Activity", "setting": "RKO [5]", "result": "Active"}, {"measurement": "Activity", "setting": "HCT-116 [6]", "result": "Active"}, {"measurement": "Activity", "setting": "RKO [7]", "result": "Active"}, {"measurement": "Activity", "setting": "FHC", "result": "Toxic"}, {"measurement": "viability at 2.5 µM", "setting": "HCT-116 [8]", "result": 78.1, "unit": "%"}, {"measurement": "Activity", "setting": "HCT-116 [9]", "result": 4.94, "unit": "%"}, {"measurement": "Activity", "setting": "HCT-116 [10]", "result": "6.13 - 19.42%"}, {"measurement": "Activity", "setting": "HCT-116 [11]", "result": "Dose-dependent effect"}, {"measurement": "Activity", "setting": "HCT-116 [12]", "result": 3.15, "unit": "%"}, {"measurement": "Activity", "setting": "HCT-116 [13]", "result": 10.05, "unit": "%"}, {"measurement": "Activity", "setting": "HCT-116 [14]", "result": "inactive"}, {"measurement": "Activity", "setting": "HCT-116 [15]", "result": 82.21, "unit": "%"}, {"measurement": "Activity", "setting": "HCT-116 [16]", "result": 4.38, "unit": "%"}, {"measurement": "IC50", "setting": "HCT-116 [17]", "result": 31100, "unit": "nM"}, {"measurement": "IC50", "setting": "HCT-116 [18]", "result": 18100, "unit": "nM"}, {"measurement": "inhibition", "setting": "HCT-116 [19]", "result": "inactive"}, {"measurement": "Activity", "setting": "HCT-116 [20]", "result": 24.16, "unit": "%"}, {"measurement": "Activity", "setting": "HCT-116 [21]", "result": 5.29, "unit": "%"}, {"measurement": "Activity", "setting": "HCT-116 [22]", "result": 4.45, "unit": "%"}, {"measurement": "Activity", "setting": "[23]", "result": "Active"}, {"measurement": "Activity", "setting": "[24]", "result": "Active"}, {"measurement": "Activity", "setting": "[25]", "result": "Active"}, {"measurement": "Activity", "setting": "[26]", "result": "Active"}, {"measurement": "Activity", "setting": "HCT-116 [27]", "result": "inactive"}, {"measurement": "Activity", "setting": "HCT-116 [28]", "result": "inactive"}, {"measurement": "Activity", "setting": "HCT-116 [29]", "result": "inactive"}, {"measurement": "Activity", "setting": "HCT-116 [30]", "result": "inactive"}, {"measurement": "Activity", "setting": "[31]", "result": "Active"}, {"measurement": "TGI", "setting": "HCT-116 [32]", "result": "Active"}, {"measurement": "Activity", "setting": "HCT-116 [33]", "result": "Active"}]}
